Measured values reported in patent US20250034170A1, “SMALL MOLECULE MODULATORS OF GLUCOCEREBROSIDASE ACTIVITY AND USES THEREOF” (Vanqua Bio, Inc., priority 2021, published 2025).

target: T1, GCase (Homo sapiens, UniProt P04062); assay: activation of GCase in a live cell PFB assay in HELA cells; format: cell-based; details: activation of GCase, EC50 ranges
T1 construct: endogenous in cells; host or cells: HeLa cells
T1 sequence (P04062 40-536): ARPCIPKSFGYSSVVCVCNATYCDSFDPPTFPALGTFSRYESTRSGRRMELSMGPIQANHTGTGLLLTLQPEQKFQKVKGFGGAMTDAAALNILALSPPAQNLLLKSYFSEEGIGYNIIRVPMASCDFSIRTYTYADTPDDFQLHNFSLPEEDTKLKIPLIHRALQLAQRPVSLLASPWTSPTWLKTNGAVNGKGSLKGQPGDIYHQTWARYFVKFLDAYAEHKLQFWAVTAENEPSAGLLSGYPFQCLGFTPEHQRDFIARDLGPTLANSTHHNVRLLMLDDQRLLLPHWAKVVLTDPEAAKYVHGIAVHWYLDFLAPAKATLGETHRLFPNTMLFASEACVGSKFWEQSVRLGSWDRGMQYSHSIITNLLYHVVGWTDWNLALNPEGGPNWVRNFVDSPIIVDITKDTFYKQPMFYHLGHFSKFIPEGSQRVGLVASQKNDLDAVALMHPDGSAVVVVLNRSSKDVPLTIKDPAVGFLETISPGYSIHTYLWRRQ
Method: Exemplary compounds were evaluated for activation of GCase in a live cell PFB assay in HELA cells (essentially as described in Ysselstein et al., “LRRK2 kinase activity regulates lysosomal glucocerebrosidase in neurons derived from Parkinson's disease patients” Nature Communications (2019) 10:5570). […] EC50 ranges: A: <10 μM; B: >10-50 μM; C: >50-100 μM; D: >100 μM.

SMILES | EC50 [µM]
O=C1N(c2cc(C(F)(F)F)ccn2)CCC12CCN(c1nccn3cncc13)CC2 [Cmpd 264] | > 100
CC1CC2(CCN(c3cnc4cnn(CC(F)F)c4n3)CC2)CN1c1ccc(C(F)(F)F)nc1 (centres unmarked) [Cmpd 265] | 10 to 50
Cc1cccc(-c2noc(C)c2C(=O)N2CCC3(CC2)CCN(c2cc(C(F)(F)F)ccn2)C3=O)c1 [Cmpd 267] | 10 to 50
Cc1cc(F)cc(-n2cc(C(=O)N3CCC4(CC3)CCN(c3cc(C(F)(F)F)ccn3)C4=O)nn2)c1 [Cmpd 268] | 10 to 50
O=C(c1nc2ccccc2cc1C1CC1)N1CCC2(CC1)CCN(c1cc(C(F)(F)F)ccn1)C2=O [Cmpd 269] | 10 to 50
Cc1cn(-c2ccccc2)nc1C(=O)N1CCC2(CC1)CCN(c1cc(C(F)(F)F)ccn1)C2=O [Cmpd 270] | 10 to 50
Cc1nn(CC(F)F)c2nc(N3CCC4(CC3)CCN(c3cncc(C(F)(F)F)n3)C4=O)cnc12 [Cmpd 271] | 10 to 50
O=C1N(c2cncc(C(F)(F)F)n2)CCC12CCN(c1cnc3cnn(CC(F)(F)F)c3n1)CC2 [Cmpd 272] | 10 to 50
O=C1N(c2cc(C(F)(F)F)ccn2)CCC12CCN(c1cnc3cnn(C4COC4)c3n1)CC2 [Cmpd 273] | 10 to 50
O=C1N(c2cncc(C(F)(F)F)n2)CCC12CCN(c1cnc3cnn(C4COC4)c3n1)CC2 [Cmpd 276] | 10 to 50
O=C1CC2(CCN(c3cnc4cnn(C5COC5)c4n3)CC2)CN1c1cncc(C(F)(F)F)n1 [Cmpd 277] | 10 to 50
Cc1nn(CC(F)F)c2nc(N3CCC4(CC3)CC(=O)N(c3cncc(C(F)(F)F)n3)C4)cnc12 [Cmpd 280] | 10 to 50
O=C1CC2(CCN(c3cnc4cnn(C5COC5)c4n3)CC2)CN1c1cc(C(F)(F)F)ccn1 [Cmpd 284] | 50 to 100
O=C1N(c2cc(C(F)(F)F)ccn2)CCC12CCN(c1ncc3cnn(CC(F)F)c3n1)CC2 [Cmpd 285] | 10 to 50
O=C1N(c2cncc(C(F)(F)F)n2)CCC12CCN(c1ncc3cnn(CC(F)F)c3n1)CC2 [Cmpd 287] | > 100
O=C1CC2(CCN(c3ncc4cnn(CC(F)F)c4n3)CC2)CN1c1cncc(C(F)(F)F)n1 [Cmpd 288] | 10 to 50
O=C1N(c2nccc(C(F)(F)F)n2)CCC12CCN(c1ncc3cnn(CC(F)F)c3n1)CC2 [Cmpd 289] | 10 to 50
O=C1CC2(CCN(c3cnc4cnn(CC(F)F)c4n3)CC2)CCN1c1ccc(C(F)(F)F)cn1 [Cmpd 293] | 10 to 50
O=C1CCC2(CCN(c3cnc4cnn(CC(F)F)c4n3)CC2)CN1c1ccc(C(F)(F)F)cn1 [Cmpd 294] | 10 to 50

SMILES | EC50 [µM]
FC(F)Cn1ncc2cnc(N3CCC4(CN(c5ccnc(C(F)(F)F)c5)C4)C3)nc21 [Cmpd 295] | 10 to 50
COc1nc(N2CCC3(CN(c4ccnc(C(F)(F)F)c4)C3)C2)nc2c1cnn2CC(F)F [Cmpd 297] | 10 to 50
FC(F)Cn1ncc2ncc(N3CCC4(CN(c5cncc(C(F)(F)F)n5)C4)C3)nc21 [Cmpd 298] | > 100
FC(F)Cn1ncc2ncc(N3CCC4(C3)CN(c3nccc(C(F)(F)F)n3)C4)nc21 [Cmpd 299] | 10 to 50
CC(C)N1C(=O)N(c2cc(C(F)(F)F)ccn2)C(=O)C12CN(c1cnc3cnn(CC(F)F)c3n1)C2 [Cmpd 300] | 50 to 100
Cc1nn(CC(F)F)c2nc(N3CCC4(CC3)CCN(c3cc(C(F)(F)F)ccn3)C4=O)ncc12 [Cmpd 301] | 10 to 50
O=C1CC2(CCN(c3cnc4cnn(CC(F)F)c4n3)CC2)CN1c1cnc(C(F)(F)F)nc1 [Cmpd 305] | 10 to 50
O=C1N(c2cnc(C(F)(F)F)nc2)CCC12CCN(c1cnc3cnn(CC(F)F)c3n1)CC2 [Cmpd 306] | 10 to 50
O=C1N(Cc2ccc(C(F)(F)F)nc2)CCC12CCN(c1cnc3cnn(CC(F)F)c3n1)CC2 [Cmpd 308] | 10 to 50
O=C1CC2(CCN(c3cnc4cnn(CC(F)F)c4n3)CC2)CN1Cc1ccc(C(F)(F)F)cn1 [Cmpd 309] | 10 to 50
O=C1N(Cc2ccc(C(F)(F)F)cn2)CCC12CCN(c1cnc3cnn(CC(F)F)c3n1)CC2 [Cmpd 310] | 10 to 50
O=C1N(c2cc(C(F)(F)F)ccn2)C2(CC2)CC12CCN(c1cnc3cnn(CC(F)F)c3n1)CC2 [Cmpd 311] | 10 to 50
O=C1N(c2ccc(C(F)(F)F)cn2)C2(CC2)CC12CCN(c1cnc3cnn(CC(F)F)c3n1)CC2 [Cmpd 312] | 50 to 100
O=C(c1ccc(C(F)(F)F)nc1)N1CCC2(CCN(c3cnc4cnn(CC(F)F)c4n3)CC2)C1 [Cmpd 313] | 10 to 50
O=C(c1ccc(C(F)(F)F)cn1)N1CCC2(CCN(c3cnc4cnn(CC(F)F)c4n3)CC2)C1 [Cmpd 314] | > 100
O=C1CCC2(CN(c3cnc4cnn(CC(F)F)c4n3)C2)CN1c1ccc(C(F)(F)F)cn1 [Cmpd 315] | 10 to 50
FC(F)Cn1ncc2ncc(N3CCC4(CN(c5cnc(C(F)(F)F)nc5)C4)C3)nc21 [Cmpd 316] | 10 to 50
FC(F)Cn1ncc2ncc(N3CCC4(CN(c5cnc(C(F)(F)F)cn5)C4)C3)nc21 [Cmpd 317] | 10 to 50
FC(F)Cn1ncc2ncc(N3CCC4(CN(c5ccnc(C(F)(F)F)n5)C4)C3)nc21 [Cmpd 318] | 10 to 50

Continued, values first:

EC50 [µM] | SMILES
< 10 | CCc1nccn1-c1cncc(N2CCC3(CC2)CCN(c2cc(C(F)(F)F)ccn2)C3=O)n1 [Cmpd 262]
< 10 | CCc1nccn1-c1cncc(N2CCC3(CCN(c4ccc(C(F)(F)F)nc4)C3)CC2)n1 [Cmpd 263]
< 10 | FC(F)Cn1ncc2ncc(N3CCC4(CCN(c5ccc(C(F)(F)F)nc5)C4)C(F)(F)C3)nc21 (centres unmarked) [Cmpd 266]
< 10 | O=C1CC2(CCN(c3cnc4cnn(CC(F)F)c4n3)CC2)CN1c1cncc(C(F)(F)F)n1 [Cmpd 274]
< 10 | O=C1CC2(CCN(c3cnc4cnn(CC(F)F)c4n3)CC2)CN1c1nccc(C(F)(F)F)n1 [Cmpd 275]
< 10 | O=C1N(c2nccc(C(F)(F)F)n2)CCC12CCN(c1cnc3cnn(C4COC4)c3n1)CC2 [Cmpd 278]
< 10 | O=C1CC2(CCN(c3cnc4cnn(C5COC5)c4n3)CC2)CN1c1nccc(C(F)(F)F)n1 [Cmpd 279]
< 10 | Cc1nn(CC(F)F)c2nc(N3CCC4(CC3)CCN(c3nccc(C(F)(F)F)n3)C4=O)cnc12 [Cmpd 281]
< 10 | Cc1nn(CC(F)F)c2nc(N3CCC4(CC3)CC(=O)N(c3nccc(C(F)(F)F)n3)C4)cnc12 [Cmpd 282]
< 10 | Cc1nn(CC(F)F)c2nc(N3CCC4(CC3)CC(=O)N(c3cc(C(F)(F)F)ccn3)C4)cnc12 [Cmpd 283]
< 10 | O=C1CC2(CCN(c3ncc4cnn(CC(F)F)c4n3)CC2)CN1c1cc(C(F)(F)F)ccn1 [Cmpd 286]
< 10 | O=C1CC2(CCN(c3ncc4cnn(CC(F)F)c4n3)CC2)CN1c1nccc(C(F)(F)F)n1 [Cmpd 290]
< 10 | O=C1N(c2ccc(C(F)(F)F)nc2)C(c2ccccc2)CC12CCN(c1cnc3cnn(CC(F)F)c3n1)CC2 (centres unmarked) [Cmpd 291]
< 10 | Cc1nn(CC(F)F)c2nc(N3CCC4(CN(c5ccnc(C(F)(F)F)c5)C4)C3)ncc12 [Cmpd 296]
< 10 | Cc1nn(CC(F)F)c2nc(N3CCC4(CC3)CC(=O)N(c3cc(C(F)(F)F)ccn3)C4)ncc12 [Cmpd 302]
< 10 | COc1nc(N2CCC3(CC2)CCN(c2cc(C(F)(F)F)ccn2)C3=O)nc2c1cnn2CC(F)F [Cmpd 303]
< 10 | COc1nc(N2CCC3(CC2)CC(=O)N(c2cc(C(F)(F)F)ccn2)C3)nc2c1cnn2CC(F)F [Cmpd 304]
< 10 | O=C1CC2(CCN(c3cnc4cnn(CC(F)F)c4n3)CC2)CN1Cc1ccc(C(F)(F)F)nc1 [Cmpd 307]
